# Laboratory results published in patent US20240166686A1, “THERAPEUTIC PEPTIDES” (Kyoto University, priority 2017, published 2024).
# Where two headings read alike, the source gives them in different places.
# Key:
# ddY mouse = assay: Elevated plus-maze (EPM) test; format: in vivo
# Experimental: The test was conducted 30 minutes after oral administration of a sample, and the evaluation was conducted based on the 5-minute test time. 23 to 27 g male ddY mice were used as animals to be studied. Cumulative time in open arms was recorded, and the percentage (%) of the time in open arms was used as an index for an anxiolytic-like effect.
# The anxiolytic-like effect of a peptide or peptide conjugate can be evaluated by an elevated plus-maze test which has been developed as an anxiety-related behavior evaluation method for screening for anti-anxiety agents and is widely used (FIG. 1). Specifically, a candidate substance is orally or intraperitoneally administered to each mouse. 30 minutes later, the mouse is placed in an elevated plus-maze. The strength of the anxiolytic-like effect can be evaluated by using the number of entries into open arms and change in residence time in the open arms as indexes.
# (§1) The elevated plus-maze consists of two open arms (25 cm×5 cm) and two closed arms (25 cm×5 cm×15 cm), and these arms are connected to a central platform elevated by 50 cm from the floor (see FIG. 1). In spite of such an elevated position, mice can walk safely in the closed arms because the closed arms are fenced. On the other hand, mice waking in the open arms feel anxious about falling from the elevated position because the open arms are open without being fenced. Therefore, a longer time when a mouse stays in the open arms means that mouse's feeling of anxiety is more alleviated, and serves as an index for an anxiolytic-like effect.
# (§2) As shown in the right diagram of FIG. 1, a sample was administered to each mouse (ddY mouse, male, 23 to 27 g) 30 minutes before the test. 30 minutes later, the mouse was placed on the central platform facing one of the open arms to start the test. Cumulative time in the open arms was recorded during the 5-minute test time. The percentage of the time in the open arms was calculated as an index for an anxiolytic-like effect.
# The data obtained by the test was indicated by the sum of a mean and a standard error of the mean (SEM). The data shown in FIGS. 1 to 9, 17, 18, 20, and 21 was analyzed by one-way or two-way ANOVA. Subsequently, study was conducted for multiple comparison by the Tukey Kramer method. P-value of <0.05 is denoted in the drawings as “*”; p-value of <0.01 is denoted in the drawings as “**”.
# ddY mice [1] = details: general statement on anti-depressant drugs; cited from earlier work
# [2] = stated in Non Patent Literature 1; cited from earlier work
# [3] = target: T1, serotonin 5-HT1A receptor (Mus musculus, UniProt Q64264); assay: Elevated plus-maze test with 5-HT1A receptor antagonist WAY100135; format: in vivo; details: elevated plus-maze with or without WAY100135
# T1 construct: from tissue; host or cells: whole living animal (ddY mouse, male)
# T1 sequence (Q64264 1-421): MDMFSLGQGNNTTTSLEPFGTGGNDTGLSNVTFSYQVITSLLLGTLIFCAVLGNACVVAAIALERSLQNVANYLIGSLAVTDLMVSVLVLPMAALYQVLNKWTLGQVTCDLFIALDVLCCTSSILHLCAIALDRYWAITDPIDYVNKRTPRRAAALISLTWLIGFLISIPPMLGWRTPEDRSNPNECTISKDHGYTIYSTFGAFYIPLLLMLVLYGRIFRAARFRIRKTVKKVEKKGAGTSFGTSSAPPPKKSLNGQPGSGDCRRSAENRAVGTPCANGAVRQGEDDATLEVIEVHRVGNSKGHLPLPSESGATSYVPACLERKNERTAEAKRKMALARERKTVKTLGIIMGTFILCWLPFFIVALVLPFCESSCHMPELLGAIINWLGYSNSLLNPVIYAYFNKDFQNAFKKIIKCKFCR
# From the text: as §1, §2
# The peptide SYLPPLTT (SEQ ID NO: 1) or the peptide SYLPPLT (SEQ ID NO: 4) (dose: 1.0 mg/kg) was used in combination with a serotonin 5-HT1A receptor antagonist WAY100135 (dose: 10 mg/kg) and orally administered (p.o.) to each mouse, which was then used in the elevated plus-maze test (n=4 to 6).
# The peptide YHIEPV (SEQ ID NO:2) was orally administered as a sample to mice 30 minutes before an elevated plus-maze test, with or without WAY100135, an antagonist selective for 5-HT1A receptor (n=13-15). WAY100135 was administered 50 minutes before the elevated plus-maze test. Separately, the peptide YHIEPV (SEQ ID NO:2) was orally administered as a sample to mice 30 minutes before an elevated plus-maze test, with or without naltrindole, an […] receptor antagonist, which was administered 50 minutes before the elevated plus-maze test (n=11-15).
# ddY mice [4] = assay: Tail suspension test; format: in vivo, mouse; details: 30 min before 6-min suspension
# Experimental: Antidepressant-like effect can be evaluated by a tail suspension test. The tail suspension test is an experimental method used to screen potential antidepressant drugs (Can et al., 2012, J Vis Exp., 59:e3769). The amount of time that a mouse is immobile (i.e. is not displaying escape behavior) during the six minutes is measured to provide an immobility time. […] Therefore, if a reduction of immobility time is observed when testing a test substance, it can be concluded that the test substance has anti-depressant properties. Immobility is considered a despair state, and, therefore, a reduction of immobility time also indicates an increase in motivation (i.e., that the test substance has motivation-increasing properties).
# The peptide SYLPPLT (SEQ ID NO: 4) was administered orally to mice (ddY mice, males, 24˜30 g) at 0.03 mg/kg, 0.1 mg/kg or 0.3 mg/kg and 30 minutes later the mice were suspended by their tails for six minutes.(n=11 to 14)
# δ opioid receptor = target: T2, δ opioid receptor (Mus musculus, UniProt P32300); assay: Elevated plus-maze test with opioid receptor antagonist naltrindole; format: in vivo; details: elevated plus-maze with or without naltrindole given 50 min before test; peptide oral 30 min before
# T2 construct: orally administered as a sample to mice 30 minutes before an elevated plus-maze test, with or without naltrindole; from tissue; host or cells: whole living animal (ddY mouse, male)
# From the text: as §1, §2
# The peptide YHIEPV (SEQ ID NO:2) was orally administered as a sample to mice 30 minutes before an elevated plus-maze test, with or without WAY100135, an antagonist selective for 5-HT1A receptor (n=13-15). WAY100135 was administered 50 minutes before the elevated plus-maze test. […]
# [5] = Example 16, oral, SYLPPLTT 0.3, 1, SYLPPLT 0.1, 0.3, 1, YHIEPV 1, 3, 10, diazepam 1, 3, 10 mg/kg, result not split by dose
# [6] = oral 0.1 mg/kg, 30 min before 5-min test, vs vehicle saline
# [7] = oral 0.3 mg/kg, 30 min before 5-min test, vs vehicle saline
# [8] = oral 1 mg/kg, 30 min before 5-min test, vs vehicle saline
# [9] = oral 10 mg/kg, 30 min before 5-min test, vs vehicle saline
# T2 sequence (P32300 whole entry): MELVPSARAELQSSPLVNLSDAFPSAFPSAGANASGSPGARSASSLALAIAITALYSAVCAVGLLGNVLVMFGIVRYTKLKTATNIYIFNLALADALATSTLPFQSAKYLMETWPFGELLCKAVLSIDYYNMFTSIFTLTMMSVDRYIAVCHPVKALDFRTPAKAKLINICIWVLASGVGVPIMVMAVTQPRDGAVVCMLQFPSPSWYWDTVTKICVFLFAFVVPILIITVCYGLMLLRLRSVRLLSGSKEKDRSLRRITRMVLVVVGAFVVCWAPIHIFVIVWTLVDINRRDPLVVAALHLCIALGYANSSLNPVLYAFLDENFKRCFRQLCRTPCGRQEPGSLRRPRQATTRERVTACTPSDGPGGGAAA
compound,measurement,setting,value
"CN1C(=O)CN=C(c2ccccc2)c2cc(Cl)ccc21 [diazepam, Diazepam, reference compound]",ratio of an open arm residence time,ddY mouse; [5],increase observed
CN(C)CCCN1c2ccccc2CCc2ccccc21 [imipramine],immobility time,ddY mice [1],reduces immobility time
FLLVK,ratio of an open arm residence time,ddY mouse; [6],increased
LLVK,ratio of an open arm residence time,ddY mouse; [6],increased
LVK,ratio of an open arm residence time,ddY mouse; [6],increased
NYLLVKG,ratio of an open arm residence time,ddY mouse; [6],increased
Rubiscolin-6,anxiolytic effect,[2],has an anxiolytic effect
SYLPPL,ratio of an open arm residence time,ddY mouse; [7],increased
same,ratio of an open arm residence time,ddY mouse; [8],increased
same,ratio of an open arm residence time,ddY mouse; [9],increased
SYLPPLT,ratio of an open arm residence time,ddY mouse; [5],increased
same,ratio of an open arm residence time,ddY mouse; [6],increased
same,ratio of an open arm residence time,ddY mouse; [7],increased
same,ratio of an open arm residence time,ddY mouse; [8],statistically significant
same,anxiolytic-like effect mediated by serotonin 5-HT1A receptor,[3],mediated by activation of serotonin 5-HT1A receptor
same,immobility time,ddY mice [4]; oral 0.03 mg/kg,decrease
same,immobility time,ddY mice [4]; oral 0.1 mg/kg,decrease
same,immobility time,ddY mice [4]; oral 0.3 mg/kg,decrease
SYLPPLTT,ratio of an open arm residence time,ddY mouse; [5],increased
same,ratio of an open arm residence time,ddY mouse; [7],increased
same,ratio of an open arm residence time,ddY mouse; [8],statistically significant
same,anxiolytic-like effect mediated by serotonin 5-HT1A receptor,[3],mediated by activation of serotonin 5-HT1A receptor
WLLVK,ratio of an open arm residence time,ddY mouse; [6],increased
YHIEPV,ratio of an open arm residence time,ddY mouse; [5],increased
same,ratio of an open arm residence time,ddY mouse; [8],increased
same,ratio of an open arm residence time,"ddY mouse; oral 3 mg/kg, 30 min before 5-min test, vs vehicle saline",statistically significant
same,ratio of an open arm residence time,ddY mouse; [9],statistically significant
same,anxiolytic-like effect mediated by serotonin 5-HT1A receptor,[3],not mediated by activation of serotonin 5-HTopio1A receptor
same,anxiolytic-like effect mediated by opioid receptor,δ opioid receptor,mediated by activation 8-opioid receptor
YLL (NYLLVKG),ratio of an open arm residence time,ddY mouse; [6],increased
YLLAVK,ratio of an open arm residence time,ddY mouse; [5],increased
same,ratio of an open arm residence time,ddY mouse; [6],increased
YLLNNK,ratio of an open arm residence time,ddY mouse; [6],increased
YLLV,ratio of an open arm residence time,ddY mouse; [6],increased
YLLVK,ratio of an open arm residence time,"ddY mouse; oral 0.03 mg/kg, 30 min before 5-min test, vs vehicle saline",significantly increased
same,ratio of an open arm residence time,"ddY mouse; oral 0.1 mg/kg, 30 min before 5-min test, vs vehicle saline, 0.1 mg/kg",significantly increased
YLLVR,ratio of an open arm residence time,ddY mouse; [6],increased
YLVK,ratio of an open arm residence time,ddY mouse; [6],increased
